Measured values taken from ChEMBL document CHEMBL5346969 (J Med Chem, 2023).
Calls of active or inactive are those of the source. The calls are words filed in the database; no cut-off is given here.

Tests used:
[1] = system: HepG2; experiment: Antiproliferative activity against human HepG2 cells assessed as inhibition of cell viability at 1 uM incubated for 72 hrs by MTT assay; format: functional, cell-based
[2] = Toxicity in immunodeficient BALB/c mouse assessed as change in CK level at 20 mg/kg, ip for 14 days by biochemical analysis; format: organism-based; settings: in vivo, 336 h, time 14 day
[3] = Toxicity in immunodeficient BALB/c mouse xenografted with human MDA-MB-231 cells assessed as morphological changes in lung at 20 mg/kg, ip for 21 days by H and E staining based microscopy; format: organism-based; settings: in vivo, 504 h, time 21 day
[4] = system: MDA-MB-231; experiment: Induction of ferroptosis-mediated morphological changes in human MDA-MB-231 cells assessed as smaller mitochondrial volume at 20 nM incubated for 6 hrs by TEM analysis; format: functional, cell-based
[5] = Toxicity in immunodeficient BALB/c mouse assessed as change in AST level at 20 mg/kg, ip for 14 days by biochemical analysis; format: organism-based; settings: in vivo, 336 h, time 14 day
[6] = system: MDA-MB-231; experiment: Antitumor activity against human MDA-MB-231 cells xenografted in immunodeficient BALB/c mouse assessed as tumor growth inhibition at 20 mg/kg,ip for 21 days consecutively every day; format: functional; settings: MDA-MB-231, 504 h, time 21 day, read-out: TGI
[7] = system: HT-29; experiment: Antiproliferative activity against human HT-29 cells assessed as inhibition of cell viability at 1 uM incubated for 72 hrs by MTT assay; format: functional, cell-based
[8] = system: MDA-MB-231; experiment: Induction of ferroptosis in human MDA-MB-231 cells assessed as cell viability at 1 uM incubated for 72 hrs in presence of ferroptosis inhibitor, ferrostatin-1 by MTT assay; format: functional, cell-based
[9] = system: MDA-MB-231; experiment: Induction of ferroptosis in human MDA-MB-231 cells with assessed as change in FTH1 protein expression level at 5 to 20 nM incubated for 8 hrs in presence of ferroptosis inhibitor, ferrostatin-1 by Western blot analysis; format: functional, cell-based; settings: dose 5-20 nM
[10] = Toxicity in immunodeficient BALB/c mouse xenografted with human MDA-MB-231 cells assessed as body weight change at 5 to 20 mg/kg, ip for 21 days; format: organism-based; settings: in vivo, 504 h, dose 5-20 mg/kg, time 21 day
[11] = system: MDA-MB-231; experiment: Induction of ferroptosis in human MDA-MB-231 cells assessed as cell viability at 1 uM incubated for 72 hrs in presence of deferoxamine by MTT assay; format: functional, cell-based
[12] = Toxicity in immunodeficient BALB/c mouse assessed as change in LDH level at 20 mg/kg, ip for 14 days by biochemical analysis; format: organism-based; settings: in vivo, 336 h, time 14 day
[13] = system: MDA-MB-231; experiment: Induction of ferroptosis in human MDA-MB-231 cells with assessed as decrease in FTH1 protein expression level at 5 to 20 nM incubated for 8 hrs by Western blot analysis; format: functional, cell-based; settings: dose 5-20 nM
[14] = system: MDA-MB-231; experiment: Induction of ferroptosis in human MDA-MB-231 cells assessed as cell viability at 1 uM incubated for 72 hrs in presence of apoptosis inhibitor, Z-VAD-FMK by MTT assay; format: functional, cell-based
[15] = Toxicity in immunodeficient BALB/c mouse xenografted with human MDA-MB-231 cells assessed as morphological changes in heart at 20 mg/kg, ip for 21 days by H and E staining based microscopy; format: organism-based; settings: in vivo, 504 h, time 21 day
[16] = system: MDA-MB-231; experiment: Induction of ferroptosis-mediated morphological changes in human MDA-MB-231 cells assessed as ruptured mitochondria at 20 nM incubated for 6 hrs by TEM analysis; format: functional, cell-based
[17] = system: MDA-MB-231; experiment: Induction of ferroptosis in human MDA-MB-231 cells assessed as increase in intracellular lipid peroxidase by measuring decrease in red fluorescence intensity at 5 to 20 nM incubated for 8 hrs by C11-BODIPY-581/591 staining based confocal laser microscopy; format: functional, cell-based; settings: dose 5-20 nM
[18] = system: MDA-MB-231; experiment: Induction of ferroptosis-mediated antitumor activity against human MDA-MB-231 cells xenografted in immunodeficient BALB/C mouse assessed as reduction in GPX4 level in tumor tissue at 5 to 20 mg/kg,ip for 21 days by Western blot analysis; format: functional, organism-based; settings: dose 5-20 mg/kg, time 21.0 day
[19] = system: MDA-MB-231; experiment: Induction of ferroptosis in human MDA-MB-231 cells assessed as increase in intracellular ROS accumulation by measuring green fluorescence intensity at 5 to 20 nM incubated for 8 hrs by DCFH-DA staining based confocal laser microscopy; format: functional, cell-based; settings: dose 5-20 nM
[20] = system: MDA-MB-231; experiment: Induction of ferroptosis-mediated morphological changes in human MDA-MB-231 cells assessed as round and vacuolated cells at 20 nM incubated for 6 hrs by TEM analysis; format: functional, cell-based
[21] = system: MDA-MB-231; experiment: Induction of ferroptosis in human MDA-MB-231 cells assessed as cell viability incubated for 72 hrs in presence of deferoxamine by MTT assay; format: functional, cell-based; settings: MDA-MB-231, 72 h
[22] = Toxicity in immunodeficient BALB/c mouse xenografted with human MDA-MB-231 cells assessed as morphological changes in liver at 20 mg/kg, ip for 21 days by H and E staining based microscopy; format: organism-based; settings: in vivo, 504 h, time 21 day
[23] = Toxicity in immunodeficient BALB/c mouse assessed as change in BUN level at 20 mg/kg, ip for 14 days by biochemical analysis; format: organism-based; settings: in vivo, 336 h, time 14 day
[24] = system: MDA-MB-231; experiment: Induction of ferroptosis in human MDA-MB-231 cells with assessed as change in GPX4 protein expression level at 5 to 20 nM incubated for 8 hrs in presence of ferroptosis inhibitor, ferrostatin-1 by Western blot analysis; format: functional, cell-based; settings: dose 5-20 nM
[25] = system: MDA-MB-231; experiment: Induction of ferroptosis-mediated morphological changes in human MDA-MB-231 cells assessed as decreased or absence of mitochondrial crests at 20 nM incubated for 6 hrs by TEM analysis; format: functional, cell-based
[26] = Toxicity in immunodeficient BALB/c mouse xenografted with human MDA-MB-231 cells assessed as morphological changes in kidney at 20 mg/kg, ip for 21 days by H and E staining based microscopy; format: organism-based; settings: in vivo, 504 h, time 21 day
[27] = Metabolic stability in human liver microsomes assessed as intrinsic clearance at 1 uM incubated upto 60 mins in presence of NADPH by LC-MS/MS analysis; format: ADME, Microsome; settings: read-out: CLH
[28] = system: MDA-MB-231; experiment: Antitumor activity against human MDA-MB-231 cells xenografted in immunodeficient BALB/c mouse assessed as inhibition of tumor cell proliferation at 20 mg/kg,ip for 21 days consecutively every day by Ki67 staining based immunohistochemical analysis; format: functional, organism-based; settings: time 21.0 day
[29] = system: MCF7; experiment: Antiproliferative activity against human MCF7 cells assessed as inhibition of cell viability at 1 uM incubated for 72 hrs by MTT assay; format: functional, cell-based
[30] = system: MDA-MB-231; experiment: Induction of ferroptosis in human MDA-MB-231 cells assessed as increase in intracellular ROS accumulation by measuring green fluorescence intensity at 20 nM incubated for 8 hrs in presence of ferroptosis inhibitor, ferrostatin-1 by DCFH-DA staining based confocal laser microscopy; format: functional, cell-based
[31] = system: Hep 3B2; experiment: Antiproliferative activity against human Hep3B cells assessed as inhibition of cell viability at 1 uM incubated for 72 hrs by MTT assay; format: functional, cell-based
[32] = system: MDA-MB-231; experiment: Induction of ferroptosis in human MDA-MB-231 cells assessed as cell viability at 1 uM incubated for 72 hrs in presence of necrosis inhibitor, necrostatin-1 by MTT assay; format: functional, cell-based
[33] = system: MDA-MB-468; experiment: Antiproliferative activity against human MDA-MB-468 cells assessed as inhibition of cell viability at 1 uM incubated for 72 hrs by CCK-8 assay; format: functional, cell-based

COc1cc(N(C(=O)CBr)c2ccc3c(c2)OCCO3)cc(OC)c1F
Activity [1]: inactive | Activity [2]: Toxic | Activity [3]: Non-Toxic | Activity [4]: Active | Activity [5]: Toxic | inhibition in vivo at 20 mg/kg [6]: 71.7% | Activity [7]: inactive | Activity [8]: Active | Activity [9]: inactive | Activity [10]: Non-Toxic | Activity [11]: Active | Activity [12]: Toxic | Activity [13]: Active | Activity [14]: inactive | Activity [15]: Non-Toxic | Activity [16]: Active | Activity [17]: Dose-Dependent Effect | Activity [18]: Active | Activity [19]: Dose-Dependent Effect | Activity [20]: Active | IC50 [21]: 1850 nM | Activity [22]: Non-Toxic | Activity [23]: Toxic | Activity [24]: inactive | Activity [25]: Active | Activity [26]: Non-Toxic | microsomal CLint at 1 µM [27]: 1740 µL/min/mg | Activity [28]: Active | Activity [29]: inactive | Activity [30]: inactive | Activity [31]: inactive | Activity [32]: inactive | Activity [33]: Active

COc1cc(N(C(=O)CCl)c2ccc3c(c2)OCCO3)cc(OC)c1F
Activity [1]: inactive | Activity [2]: Toxic | Activity [3]: Non-Toxic | Activity [4]: Active | Activity [5]: Toxic | inhibition in vivo at 20 mg/kg [6]: 81% | Activity [7]: inactive | Activity [8]: Active | Activity [9]: inactive | Activity [10]: Non-Toxic | Activity [11]: Active | Activity [12]: Toxic | Activity [13]: Active | Activity [14]: inactive | Activity [15]: Non-Toxic | Activity [16]: Active | Activity [17]: Dose-Dependent Effect | Activity [18]: Active | Activity [19]: Dose-Dependent Effect | Activity [20]: Active | IC50 [21]: 2570 nM | Activity [22]: Non-Toxic | Activity [23]: Toxic | Activity [24]: inactive | Activity [25]: Active | Activity [26]: Non-Toxic | microsomal CLint at 1 µM [27]: 416 µL/min/mg | Activity [28]: Active | Activity [29]: Active | Activity [30]: inactive | Activity [31]: inactive | Activity [32]: inactive | Activity [33]: Active
